# Source: PMC12304285 (British Journal of Cancer, 2025)
# Values joined by “and” are separate entries in the source; they are usually repeats but may differ in a detail not shown here. Equal entries are not always repeated. Where two headings read alike, the source gives them in different places.
# Test system: patients with advanced cancer
# Protocol: A single dose was administered during Cycle 0 and was followed by a drug washout period lasting 3–7 days. […] If either of these conditions was not met, the cohort would be expanded to a minimum of 3, and up to 6, patients in all subsequent cohorts. A Bayesian adaptive design, using all of the available data and considering the pharmacokinetics (PK) from a minimum of 2 or 3 patients enrolled into each dose cohort, was used from this point. Dose escalation was scheduled to be stopped at the maximum tolerated dose (MTD) (defined as 25% of patients in a cohort experiencing a dose-limiting toxicity [DLT] with the required precision [ratio of upper and lower 95% credible limits <5.0]), the maximum feasible dose (MFD) or the recommended Phase II dose (RP2D). Intra-patient dose escalation was permitted as long as predefined criteria were met, including that the planned next higher dose had to be declared tolerated by the SRC based on assessment of 2–6 evaluable patients.
# The starting dose of PLD was 40 mg/m^2 intravenously once every 28 days for a maximum of 6 cycles. PLD dose could be escalated to 50 mg/m^2 or de-escalated to 30 mg/m^2 every 28 days with agreement from the SRC. […] Dose escalation was scheduled to be stopped at the MTD (defined as 30% of patients in a cohort experiencing a DLT with the required precision [ratio of upper and lower 95% credible limits <5.0]). Approximately 30 evaluable patients across five cohorts (n = 3–6 per cohort) were originally planned to provide an estimate of MTD.
# Definitions of dose-limiting toxicity
# DLTs were evaluated during Cycle 0 and Cycle 1 of treatment. Toxicity was graded according to the National Cancer Institute CTCAE v5.0.
# A DLT was defined as an AE that occurs from the first dose of study treatment up to and including Cycle 1, Day 28 (the DLT assessment period) that is assessed as unrelated to the disease, intercurrent illness, or concomitant medications and that, despite optimal therapeutic interventions, meets any of the following criteria:
# Haematological Toxicities:
# • Grade 4 neutropenia lasting >4 days.
# • Grade 4 thrombocytopenia.
# • Grade 3 neutropenia (ANC ≥500 to <1000 cells/mm3) of any duration accompanied by fever ≥38.5 °C and/or systemic infection.
# • Grade 3 thrombocytopenia (25,000 to <50,000/mm3) with bleeding
# Non-haematological toxicities:
# • Confirmed laboratory abnormalities
# • Nausea or vomiting for more than three consecutive days despite administration of maximal anti-emetic therapy
# • Diarrhoea for more than three consecutive days despite administration of maximal anti- […]
# • QTc prolongation >500 milliseconds or QTcF prolongation from baseline by 60 milliseconds confirmed on at least two separate ECGs
# • Any other toxicity that is greater than at baseline AND is clinically significant and/or […]
# AND is judged to be a DLT by the SRC
# • Any treatment-related event, including significant dose reductions, omissions or delays, judged to be a DLT by the SRC. Examples may include CTCAE Grade 2 toxicities that are clinically significant and/or unacceptable according to the investigator, toxicities that […]
# the administration of study treatment in the subsequent cycle by ≥7 consecutive days DLT will not include the following:
# • Transient isolated laboratory abnormalities which are not considered clinically significant and resolve to baseline within 72 hours without any intervention […]
# • Toxicity unrelated to treatment e.g., related to the underlying disease or disease-related
smiles,measurement,setting,value
"Cc1cc2ncnn2cc1Nc1ncc2c(n1)n(C1CCOCC1)c(=O)n2C [AZD7648, 7-Methyl-2-[(7-methyl[1,2,4]triazolo[1,5-a]pyridin-6-yl)amino]-9-(tetrahydro-2H-pyran-4-yl)-7,9-dihydro-8H-purin-8-one]",Any AE leading to death,5 mg BID (n = 1),0 n (%)
same,Any AZD7648-related AE leading to death,5 mg BID (n = 1),0 n (%)
same,Any AE leading to death,5 mg QD (n = 1),0 n (%)
same,Any AZD7648-related AE leading to death,5 mg QD (n = 1),0 n (%)
same,Any AE leading to death,10 mg BID (n = 1),0 n (%)
same,Any AZD7648-related AE leading to death,10 mg BID (n = 1),0 n (%)
same,Any AE leading to death,20 mg BID (n = 1),0 n (%)
same,Any AZD7648-related AE leading to death,20 mg BID (n = 1),0 n (%)
same,Any AE leading to death,40 mg BID (n=3),0 n (%)
same,Any AZD7648-related AE leading to death,40 mg BID (n=3),0 n (%)
same,Any AE leading to death,80 mg BID (n = 4),1 (25.0) n (%)
same,Any AZD7648-related AE leading to death,80 mg BID (n = 4),0 n (%)
same,Any AE leading to death,160 mg BID (n=3),0 n (%)
same,Any AZD7648-related AE leading to death,160 mg BID (n=3),0 n (%)
same,TEAE Anaemia,Any grade,4 (28.6) n (%)
same,TEAE Diarrhoea,Any grade,4 (28.6) n (%)
same,TEAE Nausea,Any grade,4 (28.6) n (%)
same,TEAE Neutropenia,Any grade,2 (14.3) n (%)
same,TEAE Urinary tract infection,Any grade,2 (14.3) n (%)
same,TEAE Vomiting,Any grade,4 (28.6) n (%)
same,"Any treatment-related grade 3/4 AE, related to AZD7648",all dose levels,4 (28.6) n (%)
same,Death,all dose levels,4 (28.6) n (%)
same,patients with nausea,all dose levels,28.6% and ~ 30%
same,patients with neutropenia,all dose levels,14.3%
same,patients with vomiting,all dose levels,28.6% and ~ 30%
same,Any AE,"human, in vivo",12 (85.7) n (%)
same,Any DLT,"human, in vivo",1 (7.1) n (%)
same,Any SAE,"human, in vivo",5 (35.7) n (%)
same,TEAE Anaemia,"human, in vivo",1 (7.1) n (%)
same,TEAE Diarrhoea,"human, in vivo",1 (7.1) n (%)
same,TEAE Nausea,"human, in vivo",0 n (%)
same,TEAE Neutropenia,"human, in vivo",1 (7.1) n (%)
same,TEAE Urinary tract infection,"human, in vivo",0 n (%)
same,TEAE Vomiting,"human, in vivo",0 n (%)
same,patients with gastrointestinal disorders,"human, in vivo",64.3%
same,patients who experienced TEAEs,"human, in vivo, 2.9 months",85.7%
same,patients with abdominal pain,"human, in vivo, 2.9 months",~ 20%
same,patients with decreased appetite,"human, in vivo, 2.9 months",~ 20%
same,patients with fatigue,"human, in vivo, 2.9 months",~ 20%
same,maximum tolerated dose (MTD),"monotherapy, escalation paused at 160 mg BID continuous dosing",an MTD could not be declared
same,DLT reported (nature),"one patient, AZD7648 160 mg BID",grade 4 increased alanine aminotransferase (ALT) and aspartate aminotransferase (AST)
